Measurements taken from patent US20260191974A1, “B7-H3 TARGETING LIGANDS AND METHODS OF USE” (The University of North Carolina at Chapel Hill, priority 2022, published 2026).
Where a SMILES comes first, the peptide text is derived from it. Bridges are numbered along the chain shown (N, C = ends).

What was measured:
murine B7-H3 (mB7-H3) = target: T1, murine B7-H3 (mB7-H3) (Mus musculus, UniProt Q8VE98); assay: SPR binding to murine B7-H3
T1 sequence (Q8VE98 29-316): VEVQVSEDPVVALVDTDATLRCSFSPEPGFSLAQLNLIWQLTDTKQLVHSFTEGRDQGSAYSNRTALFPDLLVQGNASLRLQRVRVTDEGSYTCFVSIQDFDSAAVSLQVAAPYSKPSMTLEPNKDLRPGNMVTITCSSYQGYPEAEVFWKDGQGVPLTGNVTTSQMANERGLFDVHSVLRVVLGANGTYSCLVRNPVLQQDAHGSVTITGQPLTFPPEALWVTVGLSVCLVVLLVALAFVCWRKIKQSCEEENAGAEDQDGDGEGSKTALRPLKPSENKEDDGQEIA
Description: FIGS. 24A-24C. SPR analysis of the selected peptides B1.1 and JP5. The B1.1 variant was analyzed at analyte concentrations of 7.5, 15, 30, 60, and 120 nM (FIG. 24A) and the JP5 variant was analyzed at analyte concentrations of 22.2, 66.6, 200, 600 and 1800 nM (FIG. 24B). (FIG. 24C) Binding kinetics of each peptide.
(§1) Surface Plasmon Resonance (SPR) analysis. Binding kinetics between our selected peptide (and variants) and biotinylated B7-H3 (B7-H3b) were assessed through SPR analysis using a BIACORE 8K SPR system (GE Healthcare). The running buffer was 1×PBS pH7.5, 0.05% TWEEN® 20 and all analysis was carried out at 25° C. B7-H3b was loaded onto a NeutrAvidin SPR Chip (Series S Sensor Chip NA, 29407997, Cytiva) at a flow rate of […] to a surface density of 1000-1500 response units. Analyte was then injected over a series of five concentrations and quantified by BIACORE single-cycle kinetics method. For our selected peptide (B1.1) and the Met9Nle variant a range of 7.5, 15, 30, 60, 120 nM were run. For the linear variant concentrations of 50, 100, 200, 400, 800 nM were run. Binding sonograms were generated using a standard 1:1 binding kinetics model and kinetics constants determined using standard BIACORE evaluation software.
Surface plasmon resonance was used to evaluate binding of B1.1 and JP5 to both human and murine B7-H3 (FIGS. 24A-24C).

B7-H3 [1] = assay: ka (M^-1s^-1)
Excerpt: (§2) Table printed on a drawing sheet, FIG. 4F
Head of the field: ka (M^-1s^-1)
(§3) The patent's description of the figure: FIGS. 4A-4G. (FIG. 4A) Selection schematic detailing the selection process for identifying binders against B7-H3. (FIG. 4B) qPCR results of the mTG mediated B7-H3 selection. (FIG. 4C) B7-H3 selection results and complete NGS analysis of B7-H3 hits. (FIG. 4D) NGS data of the selection hits. […] Arrow indicates the peptide pursued for binding validation. (FIG. 4E) EIC ([M+2], 948.91 m/z) traces corresponding to the product of the mTG reaction with linear B1.1 peptide and the synthetic lactam, disulfide peptide. (FIG. 4F) Surface Plasmon Resonance (SPR) analysis of the selected peptide (B1.1), the Met9Nle variant, and the linear variant. […] The selected B1.1 and the Met9Nle variant were analyzed at analyte concentrations of 7.5, 15, 30, 60, 120 nM. The linear variant was analyzed at analyte concentrations of 50, 100, 200, 400, 800 nM. […] (FIG. 4G) Individual SPR curves. Fitted curve and raw data are shown.
(§4) First copying reader's note: Brackets drawn on the SELECTED and MET9NLE sequences join C to C (above) and Q to K (below), marking a bicyclic peptide; LINEAR has no brackets.
(§5) Where the first naming reader finds the target: passage: Binding affinities were assessed for each peptide by surface plasmon resonance (SPR) against biotinylated B7-H3.

biotinylated B7-H3 = target: T2, biotinylated B7-H3 (Homo sapiens, UniProt Q5ZPR3); assay: Surface Plasmon Resonance (SPR) analysis against biotinylated B7-H3; conditions: biotinylated B7-H3, 25° C., 1:1 binding kinetics model, read-out: binding affinity towards B7-H3
T2 sequence (Q5ZPR3 29-534): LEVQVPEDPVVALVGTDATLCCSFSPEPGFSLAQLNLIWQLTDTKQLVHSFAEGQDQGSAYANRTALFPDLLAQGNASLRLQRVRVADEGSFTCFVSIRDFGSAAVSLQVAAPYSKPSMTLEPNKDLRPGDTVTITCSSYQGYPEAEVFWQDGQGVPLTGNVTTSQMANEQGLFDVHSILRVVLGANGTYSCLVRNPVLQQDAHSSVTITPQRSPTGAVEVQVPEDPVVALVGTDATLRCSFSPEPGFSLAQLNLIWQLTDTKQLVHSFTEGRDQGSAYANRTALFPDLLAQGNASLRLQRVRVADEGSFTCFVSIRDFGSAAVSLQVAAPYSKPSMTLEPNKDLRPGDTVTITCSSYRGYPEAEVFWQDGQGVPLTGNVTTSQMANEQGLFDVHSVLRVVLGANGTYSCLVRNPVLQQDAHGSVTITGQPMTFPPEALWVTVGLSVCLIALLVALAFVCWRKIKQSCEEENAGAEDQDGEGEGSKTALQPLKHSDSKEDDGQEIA
Excerpt: as §3, with “FIGS.” for “The patent's description of the figure: FIGS.”
as §1

B7-H3 [2] = assay: kd (s^-1)
Excerpt: as §2
Head of the field: kd (s^-1)
as §3, §4, §5

- KD (murine B7-H3 (mB7-H3)): binds to murine B7-H3
- Kd (biotinylated B7-H3): 43.5 nM
- kd (s^-1) (B7-H3 [2]): 6.74e^-3
SMILES: CSCC[C@@H]1NC(=O)[C@H](CO)NC(=O)[C@H](Cc2c[nH]cn2)NC(=O)[C@@H]2CSSC[C@H](NC(=O)[C@H]([C@@H](C)O)NC(=O)[C@H](Cc3ccc(O)cc3)NC(=O)[C@H](Cc3ccccc3)NC1=O)C(=O)N[C@H](C(=O)N[C@@H](CO)C(=O)NCC(N)=O)CCCCNC(=O)CC[C@H](NC(=O)[C@H](CC(C)C)NC(=O)[C@H](C)NC(=O)[C@H](Cc1c[nH]c3ccccc13)NC(C)=O)C(=O)N[C@@H](CC(C)C)C(=O)N2 [B1.1, acWALQLCHSMFYTCKSG] (Ac-WALELCHSMFYTCKSG-NH2; lactam 4-14; disulfide 6-13)
- ka (M^-1s^-1) (B7-H3 [1]): 1.55e^5
